Experimental data published in US20100311708A1, “USE OF NOR-BILE ACIDS IN THE TREATMENT OF ARTERIOSCLEROSIS” (priority 2007, published 2010).

Legend:
Type in all cases: in vivo
ApoE−/− mice [1] = assay: Treatment of ApoE−/− mice with nor-UDCA in comparison to UDCA (Experiment 3); details: for % plaques in the aortic arch (plaque area versus total area, en-face red oil): FIG. 12; for plaques in red-oil stained aortic valve cross-sections (histological analysis): FIG. 13 top
Description: (§1) ApoE-deficient mice as described in Experiment 1 were used.
ApoE−/− mice (n=15) were fed with normal diet for 8 weeks post natum, followed by western chow diet (“high fat diet”) for another 8 weeks. The mice were then segregated into three groups with each group comprising five mice. In the control group, the mice were further fed with the western chow diet for additional four weeks. In the second group, the ApoE−/− mice were fed with a western chow diet comprising 0.5% w/w nor-UDCA for additional four weeks. Finally, in the third group, the ApoE−/− mice were fed with a western chow diet comprising 0.5% w/w UDCA for additional four weeks. Considering a food intake of 4 g/day of chow per mouse, this corresponds to 20 mg/day of nor-UDCA or UDCA, respectively, per mouse.
The experimental setup is depicted in FIG. 6.

ApoE−/− mice [2] = assay: Prevention of atherosclerosis in ApoE−/− mice by nor-UDCA in comparison to UDCA (Experiment 4); details: prevention study, 0.5% w/w in western chow diet for 12 weeks
Description: as §1
ApoE−/− mice (n=15) were fed with normal diet for 8 weeks post natum and then segregated into three groups with each group comprising five mice. In the control group, the mice were fed with the western chow diet for additional 12 weeks. In the second group, the ApoE−/− mice were fed with a western chow diet comprising 0.5% w/w nor-UDCA for additional 12 weeks. Finally, in the third group, the ApoE−/− mice were fed with a western chow diet comprising 0.5% w/w UDCA for additional 12 weeks. Considering a food intake of 4 g/day of chow per mouse, this corresponds to 20 mg/day of nor-UDCA or UDCA, respectively, per mouse.
Thus, in this experimental prevention setup, the mice are fed with diet known to force atherosclerotic plaque formation together with either UDCA or nor-UDCA (mice of the second and third group) having preventive effects on the plaque formation. When compared to a control fed with western chow diet only, the preventive effects can be studied.
The experimental setup is depicted in FIG. 14(a).

ApoE−/− mice [3] = assay: Treatment of ApoE−/− mice with nor-UDCA (Experiment 1); details: 0.5% w/w in western chow diet for 4 weeks after 8 weeks western chow diet, vs control
Method: In order to study the effects of nor-UDCA on atherosclerosis, ApoE-deficient mice were treated. To this end ApoE−/− mice as described in Piedrahita et. al. (PNAS, 1992, 89, 4471-4475) which carry the Apoe^tm1Unc mutation were back-crossed 10 times into the C57BL76J. ApoE-deficient mice can also be obtained from the Jackson Laboratory (Maine, US) with the strain name B6.129P2.-Apoe^tm1Unc/J(http://jaxmice.jax.org).
ApoE−/− mice (n=10) were fed with normal diet for 8 weeks post natum, followed by western chow diet for another 8 weeks. The western chow diet consists of 21% by weight fat, 1.5% by weight cholesterol and no cholic acid (“high fat diet”).
This type of western chow diet is known to force atherosclerotic plaque formation on the indicated time line in ApoE−/− mice. After eight weeks of being fed with western chow diet, the mice were segregated into two groups with each group comprising five mice. In the control group A, the mice were further fed with the western chow diet for additional four weeks. In the other group B, the ApoE−/− mice were fed with a western chow diet comprising 0.5% w/w nor-UDCA for additional four weeks. Considering a food intake of 4 g/day of chow per mouse, this corresponds to 20 mg/day of nor-UDCA per mouse.
The experimental setup is depicted in FIG. 1.

LDLR−/− mice = assay: Treatment of LDLR−/− mice with nor-UDCA (Experiment 2); details: 0.5% w/w in western chow diet for 4 weeks after 8 weeks western chow diet; vs control; FIG. 5
Description: In a second experiment (FIGS. 4 and 5), the effect of nor-UDCA in LDLR−/− mice that were raised on a western chow diet was investigated.
As for the ApoE-deficient mice, the LDLR-deficient mice are considered to be a bona-fide animal model of atherosclerosis development. If these mice are raised on a western chow diet they evolve typical symptoms of atherosclerosis involving atherosclerotic plaque formation in the aorta (FIG. 5).
LDLR−/− mice were produced as described in Ishebashi et. al. (J. Clin. Jnnvest., 1993, 92, 883-893). The 129-derived AB1 ES cell line was used. The strain was backcrossed to C57BL/6J mice for 10 generations. Ldlr^tm1Her/Ldlr^tm1Her involves: 129S7/SvEvBrd*C57BL/6. LDLR-deficient mice can also be obtained from the Jackson Laboratory (Maine, US) with the strain name B6.129S7-Ldlr^tm1Her/J (http://jaxmice.jax.org).
As in Experiment 1, ten mice being deficient in LDLR were raised on normal diet during the first 8 weeks post natum followed by the western chow diet for another eight weeks. Afterwards, the ten mice were separated into two groups for which the control group A received further feeding on a western chow diet for 4 weeks. In the test group B, the western chow diet of the following 4 weeks was supplemented with 0.5% w/w nor-UDCA. Considering a food intake of 4 g/day of chow per mouse, this corresponds to 20 mg/day of nor-UDCA per mouse. […]

[4] = treatment study, 0.5% w/w in western chow diet for 4 weeks

Row | Structure (SMILES) | % plaques in the aortic arch (plaque area versus total area, en-face red oil) (ApoE−/− mice [1]; [4]) | plaques in red-oil stained aortic valve cross-sections (histological analysis) (ApoE−/− mice [1]; [4]) | weight of the brown adipose tissue (ApoE−/− mice [2]; FIG. 18) | arteriosclerotic plaques in red-oil stained aorta cross-sections (histological analysis) (ApoE−/− mice [3]; 20 weeks post natum, FIG. 2) | sclerotic area versus the aorta area (morphometric analysis) (ApoE−/− mice [3]; FIG. 3) | extent and size of atherosclerotic plaque, aorta en-face stained with red oil (LDLR−/− mice) | number of hepatic neutrophil granulocytes (CD11b-positive cells in liver) (ApoE−/− mice [1]; 0.5% w/w in western chow diet for 4 weeks after 8 weeks western chow diet, FIG. 7) | expression level of p-JNK in liver tissue (Western blot) (ApoE−/− mice [1]; 0.5% w/w in western chow diet for 4 weeks after 8 weeks western chow diet, FIG. 8) | aortic valve plaque area versus total surface area (plaques in % of the surface area) (ApoE−/− mice [1]; treatment study, 0.5% w/w in western chow diet for 4 weeks, FIG. 13 quantification) | hepatic triglyceride levels (ApoE−/− mice [1]; treatment study, 0.5% w/w in western chow diet for 4 weeks, compared to control or UDCA-treated mice, FIG. 9) | serum transaminase (alanin-amino-transferase) levels (ApoE−/− mice [1]; treatment study, 0.5% w/w in western chow diet for 4 weeks, compared to control, FIG. 10) | total serum cholesterol levels (ApoE−/− mice [1]; treatment study, 0.5% w/w in western chow diet for 4 weeks, compared to control, FIG. 11) | hepatic triglyceride amounts, liver preparations stained with oil-red (histology) (ApoE−/− mice [2]; FIG. 15 a-c) | total serum cholesterol levels (ApoE−/− mice [2]; FIG. 17) | extent and size of atherosclerotic plaques, aorta en-face stained with red oil (ApoE−/− mice [2]; FIG. 19) | serum transaminase (alanin-amino-transferase) levels (ApoE−/− mice [2]; compared to control and UDCA, FIG. 16) | amount (weight) of white adipose tissue (ApoE−/− mice [2]; compared to control or UDCA-treated mice, FIG. 18) | hepatic triglyceride levels (quantification in liver homogenate) (ApoE−/− mice [2]; compared to control or UDCA-treated mice, FIG. 15 d) | sclerotic area versus the total aorta area (morphometric analysis) (ApoE−/− mice [2]; vs control, FIG. 20)
1 | C[C@H](CCC(=O)O)[C@H]1CC[C@H]2[C@@H]3[C@@H](O)C[C@@H]4C[C@H](O)CC[C@]4(C)[C@H]3CC[C@]12C [UDCA, reference compound] | decreasing the percent of plaques | the amount of plaques is reduced | neither UDCA nor nor-UDCA had an influence | – | – | – | – | – | – | – | – | – | – | – | – | – | – | – | –
2 | C[C@H](CC(=O)O)[C@H]1CC[C@H]2[C@@H]3[C@@H](O)C[C@@H]4C[C@H](O)CC[C@]4(C)[C@H]3CC[C@]12C [nor-UDCA, 24-nor[3α,7β-dihydroxy-5β-cholan-23-oic] acid] | decreasing the percent of plaques | the amount of plaques is reduced | neither UDCA nor nor-UDCA had an influence | significantly reduced extent of these plaques | significantly smaller | significantly reduced | clearly reduced | capable of downregulating the expression of p-JNK | significant reduction of said % plaques | capable of significantly reducing the triglyceride-amount in the liver | trend of reducing the serum transaminase levels | seems to be capable of lowering the total cholesterol | hepatic triglyceride amounts are decreased | does not seem to reduce serum cholesterol levels | significantly reduced | significantly reduces the serum transaminase levels | strong reduction of the amount of white adipose tissue | capable of significantly reducing the triglyceride-amount in the liver | significantly smaller
